From patent US20230265151A1, “GIP/GLP1 CO-AGONIST COMPOUNDS” (priority 2020, published 2023)
Where two headings read alike, the source gives them in different places.

Experiments:
Type in all cases: cell-based
hGIPR = biological target: T1, hGIPR (Homo sapiens, UniProt P48546); assay: Functional cAMP formation (HTRF) in HEK-293 clonal cells expressing hGIPR, 0.1% bovine casein, without or with 1.0% human serum albumin; conditions: for Emax: 37° C.
T1 construct: expressed in transfected cells
T1 sequence (P48546 22-466): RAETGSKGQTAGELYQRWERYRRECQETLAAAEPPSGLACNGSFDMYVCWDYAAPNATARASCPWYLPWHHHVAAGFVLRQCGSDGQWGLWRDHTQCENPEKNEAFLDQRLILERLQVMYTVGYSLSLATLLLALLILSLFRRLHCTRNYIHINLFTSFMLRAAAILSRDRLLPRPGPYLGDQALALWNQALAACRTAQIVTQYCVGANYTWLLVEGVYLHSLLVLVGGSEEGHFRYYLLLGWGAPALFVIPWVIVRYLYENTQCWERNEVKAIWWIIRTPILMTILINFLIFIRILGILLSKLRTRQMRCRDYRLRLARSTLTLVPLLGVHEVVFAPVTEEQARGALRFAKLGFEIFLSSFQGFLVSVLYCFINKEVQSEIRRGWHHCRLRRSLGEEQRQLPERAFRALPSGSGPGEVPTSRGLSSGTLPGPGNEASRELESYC
Summary of the method: (§1)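 Cells were stimulated with peptide for 30 min at 37° C, then intracellular cAMP was measured by competitive HTRF (665/620 nm ratio) and converted to nM using a cAMP standard curve. Relative EC50 and Emax came from four-parameter logistic fits of percent maximal response against peptide concentration.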

hGCGR = biological target: T2, hGCGR (Homo sapiens, UniProt P47871); assay: Functional cAMP formation (HTRF) in HEK-293 clonal cells expressing hGCGR, 0.1% bovine casein, without or with 1.0% human serum albumin; conditions: geometric mean
T2 construct: expressed in transfected cells
Summary of the method: as §1

hGLP-1R = hGLP-1R (Homo sapiens, UniProt P43220); assay: Functional cAMP formation (HTRF) in HEK-293 clonal cells expressing hGLP-1R, 0.1% bovine casein, without or with 1.0% human serum albumin; set-up: expressed in transfected cells; conditions: for Emax: 37° C., read-out: hGLP-1R Emax, % ± SEM; for EC50: cAMP, incubated at 37° C., 0.1% bovine casein (no human serum albumin), geometric mean
Summary of the method: as §1

T2 sequence (P47871 26-477): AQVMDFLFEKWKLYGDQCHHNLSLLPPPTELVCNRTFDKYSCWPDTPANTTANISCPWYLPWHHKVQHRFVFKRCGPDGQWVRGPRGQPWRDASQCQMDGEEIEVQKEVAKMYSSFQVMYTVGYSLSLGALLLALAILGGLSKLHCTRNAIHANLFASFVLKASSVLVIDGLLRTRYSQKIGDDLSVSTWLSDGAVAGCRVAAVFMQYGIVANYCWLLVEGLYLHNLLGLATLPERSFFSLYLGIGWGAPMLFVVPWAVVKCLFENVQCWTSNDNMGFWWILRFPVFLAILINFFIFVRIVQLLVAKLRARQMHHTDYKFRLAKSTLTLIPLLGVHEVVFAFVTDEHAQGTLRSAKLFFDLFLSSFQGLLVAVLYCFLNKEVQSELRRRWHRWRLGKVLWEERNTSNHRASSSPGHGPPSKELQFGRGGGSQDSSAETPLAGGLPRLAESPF
hGLP-1R, sequence (P43220 24-463): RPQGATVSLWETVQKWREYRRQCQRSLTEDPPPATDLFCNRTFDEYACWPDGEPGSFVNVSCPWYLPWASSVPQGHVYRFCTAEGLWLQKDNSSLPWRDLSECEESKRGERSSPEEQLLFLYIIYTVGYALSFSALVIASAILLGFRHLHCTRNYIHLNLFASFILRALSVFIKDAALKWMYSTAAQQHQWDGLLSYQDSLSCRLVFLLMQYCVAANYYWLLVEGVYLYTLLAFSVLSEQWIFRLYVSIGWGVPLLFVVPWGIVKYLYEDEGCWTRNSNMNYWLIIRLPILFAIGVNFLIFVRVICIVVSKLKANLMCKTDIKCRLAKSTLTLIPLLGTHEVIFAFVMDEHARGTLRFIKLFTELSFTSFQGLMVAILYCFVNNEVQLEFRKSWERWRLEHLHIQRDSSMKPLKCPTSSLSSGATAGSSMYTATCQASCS

| Compound | Emax (hGIPR; HEK293, 0.1% bovine casein and 1.0% human serum albumin, percent of maximal response to GIP(1-42)NH2, read-out: hGIPR Emax, % ± SEM) [%] | Emax (hGIPR; HEK293, percent of maximal response to GIP(1-42)NH2, 0.1% bovine casein, arithmetic mean, read-out: hGIPR Emax, % ± SEM) [%] | EC50 (hGIPR; cAMP, incubated at 37° C., 0.1% bovine casein (no human serum albumin), geometric mean, read-out: hGIPR EC50, nM (SEM, n)) [nM] | EC50 (hGCGR; 0.1% bovine casein and 1.0% human serum albumin, 37° C., read-out: hGCGR EC50, nM (SEM, n)) [nM] | EC50 (hGCGR; cAMP, incubated at 37° C., 0.1% bovine casein (no human serum albumin), read-out: hGCGR EC50, nM (SEM, n)) [nM] | Emax (hGLP-1R; HEK293, 0.1% bovine casein and 1.0% human serum albumin, percent of maximal response to GLP-1(7-36)NH2) [%] | Emax (hGLP-1R; HEK293, percent of maximal response to GLP-1(7-36)NH2, 0.1% bovine casein, arithmetic mean) [%] | EC50 (hGLP-1R; read-out: hGLP-1R EC50, nM (SEM, n)) [nM] | Emax (hGIPR; HEK293, read-out: hGIPR Emax, % ± SEM, percent of maximal response to GIP(1-42)NH2, 0.1% bovine casein, arithmetic mean) [%] | EC50 (hGCGR; hGCGR EC50, nM (SEM, n), cAMP, incubated at 37° C., 0.1% bovine casein (no human serum albumin)) [nM] | EC50 (hGLP-1R; hGLP-1R EC50, nM (SEM, n)) [nM] |
| --- | --- | --- | --- | --- | --- | --- | --- | --- | --- | --- | --- |
| CC[C@H](C)[C@H](NC(=O)[C@H](CC(C)C)NC(=O)[C@](C)(Cc1ccc(O)cc1)NC(=O)[C@@H](CCC(=O)O)NC(=O)[C@@H](NC(=O)[C@](C)(Cc1ccccc1)NC(=O)[C@H](CCC(=O)O)NC(=O)C(C)(C)NC(=O)[C@H](CCC(N)=O)NC(=O)[C@H](C)NC(=O)[C@H](CCCCNC(=O)COCCOCCNC(=O)COCCOCCNC(=O)CC[C@H](NC(=O)CCCCCCCCCCCCC(=O)O)C(=O)O)NC(=O)[C@H](CCCN)NC(=O)[C@H](CC(=O)O)NC(=O)[C@H](CC(C)C)NC(=O)[C@](C)(CC(C)C)NC(=O)[C@@H](NC(=O)[C@H](CO)NC(=O)C1(NC(=O)[C@H](CC(=O)O)NC(=O)[C@H](CO)NC(=O)[C@@H](NC(=O)[C@](C)(Cc2ccccc2F)NC(=O)[C@@H](NC(=O)CNC(=O)[C@H](CCC(=O)O)NC(=O)C(C)(C)NC(=O)[C@@H](N)Cc2ccc(O)cc2)[C@@H](C)O)[C@@H](C)O)CCCC1)[C@@H](C)CC)[C@@H](C)CC)C(=O)N[C@@H](CCC(=O)O)C(=O)NCC(=O)NCC(=O)N[C@@H](CCCCNC(=O)COCCOCCNC(=O)COCCOCCNC(=O)CC[C@H](NC(=O)CCCCCCCCCCCCC(=O)O)C(=O)O)C(=O)N[C@@H](CO)C(=O)N[C@@H](CO)C(=O)NCC(=O)N[C@@H](C)C(=O)N1CCC[C@H]1C(=O)N1CCC[C@H]1C(=O)N1CCC[C@H]1C(=O)N[C@@H](CO)C(N)=O [Example 94] | 97.1 | 91 | 0.0132 | > 9950 | > 9950 | 113 | 97.4 | 2.1 | – | – | – |
| CC[C@H](C)[C@H](NC(=O)[C@H](CC(C)C)NC(=O)[C@](C)(Cc1ccc(O)cc1)NC(=O)[C@H](CCCCNC(=O)COCCOCCNC(=O)COCCOCCNC(=O)CC[C@H](NC(=O)CCCCCCCCCCCCC(=O)O)C(=O)O)NC(=O)[C@@H](NC(=O)[C@H](Cc1ccccc1)NC(=O)[C@H](CCC(=O)O)NC(=O)C(C)(C)NC(=O)[C@H](CCC(N)=O)NC(=O)[C@H](C)NC(=O)[C@H](CCCCNC(=O)COCCOCCNC(=O)COCCOCCNC(=O)CC[C@H](NC(=O)CCCCCCCCCCCCC(=O)O)C(=O)O)NC(=O)[C@H](CCCN)NC(=O)[C@H](CC(=O)O)NC(=O)[C@H](CC(C)C)NC(=O)[C@](C)(CC(C)C)NC(=O)[C@@H](NC(=O)[C@H](CO)NC(=O)C1(NC(=O)[C@H](CC(=O)O)NC(=O)[C@H](CO)NC(=O)[C@@H](NC(=O)[C@](C)(Cc2ccccc2F)NC(=O)[C@@H](NC(=O)CNC(=O)[C@H](CCC(=O)O)NC(=O)C(C)(C)NC(=O)[C@@H](N)Cc2ccc(O)cc2)[C@@H](C)O)[C@@H](C)O)CCCC1)[C@@H](C)CC)[C@@H](C)CC)C(=O)N[C@@H](CCC(=O)O)C(=O)NCC(=O)NCC(=O)N1CCC[C@H]1C(=O)N[C@@H](CO)C(=O)N[C@@H](CO)C(=O)NCC(=O)N[C@@H](C)C(=O)N1CCC[C@H]1C(=O)N1CCC[C@H]1C(=O)N1CCC[C@H]1C(=O)N[C@@H](CO)C(N)=O [Example 116] | – | – | – | – | – | – | – | – | 115 | > 9950 | 0.197 |
